Experimental data taken from patent US7183099B2, “Inhibitors of autoinducer transporters” (Princeton University, priority 2001, dated 2007).

Key:
[1] = test system: V. harveyi reporter strain BB170 (Sensor 1−, Sensor 2+); assay type: cell-based, Vibrio harveyi; conditions: candidates for the signal tested
Experimental: Cell-free culture fluids from E. coli, S. typhimurium and V. harveyi strains were tested for the presence of signaling substances that could induce luminescence in the V. harveyi reporter strain BB170 or BB886. […] Positive control wells contained 10 μl of cell-free culture fluid from strain V. harveyi BB152 (Autoinducer-1^−, Autoinducer-2^+) or V. harveyi BB120 (Autoinducer-1^+, Autoinducer-2^+). Negative control wells contained 10 μl of sterile growth medium. The microtiter dishes were shaken in a rotary shaker at 175 rpm at 30° C.
The cell density was measured by diluting the same aliquots of cells used for measuring luminescence, spreading the dilutions onto solid LM medium, incubating the plates overnight at 30° C., and counting the resulting colonies the following day. […] Cell-free culture supernatants from V. harveyi or S. typhimurium strains were added to a final concentration of 10% (v/v) at the time of the first measurement. In control experiments, 10% (v/v) of AB medium, LB medium or LB medium containing 0.5% glucose was added instead of cell-free culture fluids.

[2] = test system: V. harveyi reporter strain BB886 (Sensor 1+, Sensor 2−); experiment: V. harveyi BB886 luminescence stimulation bioassay; assay type: cell-based, Vibrio harveyi; conditions: non self-stimulating sensor-1+, sensor-2− mutant (BB886)
Experimental: Assay for production of signaling compounds. Cell-free culture fluids from E. coli, S. typhimurium and V. harveyi strains were tested for the presence of signaling substances that could induce luminescence in the V. harveyi reporter strain BB170 or BB886. In the assays, 10 μl of cell-free culture fluids from E. coli ABI157, E. coli DH5, and S. typhimurium LT2 strains grown and harvested as described above were added to 96-well microtiter dishes. The V. harveyi reporter strain BB170 or BB886 was grown for 16 h at 30° C. with aeration in AB medium, diluted 1:5000 into fresh AB medium, and 90 µl of the diluted cells were added to the wells containing the E. coli and S. typhimurium cell-free culture fluids. Positive control wells contained 10 μl of cell-free culture fluid from strain V. harveyi BB152 (Autoinducer-1^−, Autoinducer-2^+) or V. harveyi BB120 (Autoinducer-1^+, Autoinducer-2^+). Negative control wells contained 10 μl of sterile growth medium. […] Every hour, light production was measured using a Wallac Model 1450 Microbeta Plus liquid scintillation counter in the chemiluminescence mode. The V. harveyi cell density was measured by diluting the same aliquots of cells used for measuring luminescence, spreading the dilutions onto solid LM medium (Bassler et al., 1993, supra), incubating the plates overnight at 30° C., and counting the resulting colonies the following day. […]

| Compound | activity (induction of luminescence expression in V. harveyi) [1] | lowest concentration to which the assay was sensitive [2] [nM] |
| --- | --- | --- |
| CC(=O)O [acetate, reference compound] | None of these compounds has activity |  |
| N[C@H]1CCOC1=O [homoserine lactone, reference compound] | None of these compounds has activity |  |
| C[C@@H](O)CC(=O)N[C@H]1CCOC1=O [AI-1, N-(3-hydroxybutanoyl)-L-homoserine lactone, reference compound] |  | 100 |
| O=C(O)CCC(=O)C(=O)O [-ketoglutarate, reference compound] | None of these compounds has activity |  |
